Assay results from patent publication US9040673B2, “Synthesis and identification of novel RSK-specific inhibitors” (University of Virginia Patent Foundation, priority 2009, dated 2015).
pIC50: −log10 of the molar value. Where two headings read alike, the source gives them in different places.

Key:
[1] = target: RSK2 (Homo sapiens, UniProt P51812)
[2] = test system: MCF-7 cells; test: MCF-7 cell proliferation (CellTiter-Glo cell viability); assay type: cell-based, human; settings: for inhibition of MCF-7 cell growth: 50 uM; for pIC50: 48 hours of treatment, read-out: concentration inhibiting proliferation of MCF-7 cells by 50%
[3] = test system: MCF-10A cells; test: MCF-10A cell proliferation; assay type: cell-based, human
Protocol: The cell number was measured after 48 h of treatment. Values given are the fold proliferation as a percentage of that observed with vehicle-treated cells. Points, mean (n=2 in quadruplicate); bars=SD.
FIGS. 8A-8D SL0101-1 inhibits the proliferation of cancer cells but not normal cells. […] Cell viability was measured at indicated time points. Proliferation assays were conducted using CellTiter-Glo Luminescent Cell Viability Assay (Promega), performed 44 hrs after treatment for FIGS. 8A &B and at indicated points for FIG. 8C. The data are expressed relative to time 0.
(§1) Cell Culture. For proliferation studies cells were seeded at 2500 to 5000 cells per well in 96 well tissue culture plates in the appropriate medium as described by American Type Culture Collection. After 24 hr, the medium was replaced with medium containing compound or vehicle as indicated. Cell viability was measured at indicated time points using CellTiter-Glo™ assay reagent (Promega) according to manufacturer's protocol. For in vivo inhibition studies, cells were seeded at 2.5×10^5 cells/well in 12 well cell culture clusters. After 24 hr, the cells were serum starved for 24 hr then incubated with compound or vehicle for 3 hr prior to a 30 min PDB stimulation. Cells were lysed as previously described (J. Biol. Chem. 273, 13317-13323 (1998)). The lysates were normalized for total protein, electrophoresed and immunoblotted. For cell imaging, Ha-Ras-transformed NIH/3T3 cells were seeded on LABTEK II chamber slides (Nalge) at a density of 1×10^4 cells/well. After 24 hr, fresh medium was added the indicated compounds or vehicle. Images were taken 48 hr after treatment at a magnification of 20×.

[4] = test system: HUVEC cells; test: VEGF-induced capillary network formation in HUVEC cells; assay type: cell-based, human; settings: 20 μM, 10 ng/ml VEGF, 20 hours
Protocol: Interfering with tube formation is a characteristic common to anti-angiogenic treatments. HUVEC cells were seeded at a density of 1×10^5 cells per well in 24-well culture dishes coated in growth factor-reduced Matrigel (BD Biosciences). […] The cells were incubated at 37° C. for 20 hours. Images of the cells were captured for analysis of the capillary-like network.

[5] = test system: p140, a RSK substrate; test: PDB-induced p140 phosphorylation in MCF-7 cells (immunoblot); assay type: cell-based, human; settings: 50 μM, 3 hr pre-incubation, 500 nM PDB 30 min
Protocol: To determine whether SL0101-1 inhibits RSK in intact cells, phosphorylation of p140, a RSK substrate of unknown function, was examined in a human breast cancer cell line, MCF-7. MCF-7 and MCF-10A cells were pre-incubated with vehicle, 50 μM U0126 or the indicated concentration of SL0101-1 for 3 hr (FIG. 8D). Cells were treated with 500 nM PDB for 30 min prior to lysis. Protein concentration of lysates was measured and lysates were electrophoresed, transferred and immunoblotted. […] Pre-incubation of cells with 100 μM SL0101-1 abrogates phorbol dibutyrate (PDB)-induced p140 phosphorylation as does 50 μM U0126, a MEK inhibitor.
as §1, with “The lysates were normalized for total protein, electrophoresed and immunoblotted. For cell imaging, Ha-Ras-transformed NIH/3T3 cells were seeded on LABTEK II chamber slides (Nalge) at a density of 1×10^4 cells/well. After 24 hr, fresh medium was added the indicated compounds or vehicle. Images were taken 48 hr after treatment at a magnification of 20×.” left out

[6] = test system: CaLu-1 cells; test: Calu-1 wound migration after siRNA transfection; assay type: cell-based, human; settings: wound 48 hours after, 19 hr
Protocol: Calu-1 cells were transiently transfected in suspension with either control siRNA, RSK1-specific siRNA, RSK2-specific siRNA or both RSK-1 and RSK2-specific siRNA. […] After four hours, the transfection medium was removed and the cells were plated in […] tissue-culture clusters. Forty-eight hours after transfection, scratches were made in the monolayer of cells using sterile, disposable micropipette tips. Images were captured-immediately following the wounding, and 19 hours after wounding. […] By 19 hr, the cells transfected with control siRNA have migrated into the wound. […] Thus, RSK activity is required for Calu-1 migration. More particularly, the ability of the entire monolayer to respond to the wound is depressed in the SL0101-treated cells as well as the siRNA transfected.

[7] = indicated concentration, 48 h of treatment

Chain of RSK2 (P51812 1-397 limits assumed): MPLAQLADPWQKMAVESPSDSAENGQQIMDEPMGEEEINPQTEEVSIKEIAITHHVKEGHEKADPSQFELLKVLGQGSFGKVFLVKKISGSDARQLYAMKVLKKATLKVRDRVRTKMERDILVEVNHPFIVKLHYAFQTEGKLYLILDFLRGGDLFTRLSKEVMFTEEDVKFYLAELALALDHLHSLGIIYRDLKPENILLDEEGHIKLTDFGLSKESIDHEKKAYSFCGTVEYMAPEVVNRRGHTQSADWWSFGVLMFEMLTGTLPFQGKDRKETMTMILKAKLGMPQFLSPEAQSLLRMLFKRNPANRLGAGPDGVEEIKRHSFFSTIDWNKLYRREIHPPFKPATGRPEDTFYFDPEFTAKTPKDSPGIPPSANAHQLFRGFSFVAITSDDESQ

CC(=O)OC1C(C)OC(Oc2c(-c3ccc(O)cc3)oc3cc(O)cc(O)c3c2=O)C(OC(C)=O)C1O [2″,4″-di-O-acetyl-SL0101, kaempferol 3-O-(2″,4″-di-O-acetyl-α-L-rhamnopyranoside)]
pIC50 [1]: ~6.59 | inhibition of MCF-7 cell growth [2]: similarly effective at inhibiting MCF-7 cell growth

CC(=O)O[C@@H]1[C@@H](OC(C)=O)[C@H](C)O[C@@H](Oc2c(-c3ccc(O)cc3)oc3cc(O)cc(O)c3c2=O)[C@@H]1OC(C)=O [3Ac-SL0101, kaempferol 3-O-(2″,3″,4″-tri-O-acetyl-α-L-rhamnopyranoside)]
proliferation of MCF-7 cells [2, 7]: selectively inhibits MCF-7 breast cancer cell proliferation | proliferation of MCF-10A (nontransformed) cells [3, 7]: not nontransformed breast cell proliferation

CC(=O)OC1C(C)OC(Oc2c(-c3ccc(O)cc3)oc3cc(O)cc(O)c3c2=O)C(O)C1O [4″-mono-O-acetyl-SL0101, kaempferol 3-O-(4″-mono-O-acetyl-α-L-rhamnopyranoside)]
pIC50 [1]: ~6.85 | inhibition of MCF-7 cell growth [2]: did not inhibit MCF-7 cell proliferation

Cn1cc(C2=C(c3cn(CCCSC(=N)N)c4ccccc34)C(=O)NC2=O)c2ccccc21 [Ro 318220]
proliferation of MCF-7 cells ([2]; 500 nM): attenuated proliferation | proliferation of MCF-10A cells ([3]; 500 nM): attenuated proliferation

CC(C)c1cc(/C=C(\C#N)C(=O)NCCCc2ccccc2)cc(C(C)C)c1O [SU1498]
capillary-like network formation [4]: rounded nodes with few tube-like projections

N#CC(=C(/N)Sc1ccccc1N)/C(C#N)=C(\N)Sc1ccccc1N [U0126]
PDB-induced p140 phosphorylation [5]: abrogates | proliferation of MCF-7 cells ([2]; 50 μM (FIG. 8A)): halted proliferation | proliferation of MCF-10A cells ([3]; 50 μM (FIG. 8A)): halted proliferation

CC(=O)OC1C(C)CC(Oc2c(-c3ccc(O)cc3)oc3cc(O)cc(O)c3c2=O)C(O)C1O [compound 12, Kaempferol L-carbarhamnoside 4″-acetate]
proliferation of MCF-7 cells [2, 7]: inhibit proliferation

CC(=O)OC1C(C)CC(Oc2c(-c3ccc(O)cc3)oc3cc(O)cc(O)c3c2=O)C(OC(C)=O)C1O [compound 13, Kaempferol L-carbarhamnoside 2″,4″-diacetate]
pIC50 [2]: ~4.52 | proliferation of MCF-7 cells [2, 7]: inhibit proliferation

CC(=O)OC1C(C)CC(Oc2c(-c3ccc(O)cc3)oc3cc(O)cc(O)c3c2=O)C(O)C1OC(C)=O [compound 14, Kaempferol L-carbarhamnoside 3″,4″-diacetate]
pIC50 ([2]; Homo sapiens, MCF7): ~4.52 | proliferation of MCF-7 cells [2, 7]: inhibit proliferation

CCCC1OC(Oc2c(-c3ccc(O)cc3)oc3cc(O)cc(O)c3c2=O)C(O)C(OC(C)=O)C1OC(C)=O [compound 16, Kaempferol-6″ethyl-L-rhamnoside-3″,4″-diacetate]
pIC50 ([2]; Homo sapiens, MCF7): ~4.52 | proliferation of MCF-7 cells [2, 7]: inhibit proliferation

O=c1c(O)c(-c2ccc(O)cc2)oc2cc(O)cc(O)c12 [kaempferol]
growth of MCF-7 cells ([2]; concentration not given): slows growth | growth of MCF-10A cells ([3]; concentration not given): slows growth

RSK1-specific siRNA: custom oligonucleotide to Rsk1 mRNA, AAGAAGCUGGACUUCAGCCGU; SEQ ID NO: 1 (listed as RNA, chemistry not given here; listed as Homo sapiens)
migration of Calu-1 cells into wound [6]: reduced ability to migrate into the wound

RSK2-specific siRNA: custom oligonucleotide to Rsk2 mRNA, AACCUAUGGGAGAGGAGGAGA; SEQ ID NO: 2 (listed as RNA, chemistry not given here; listed as Homo sapiens)
migration of Calu-1 cells into wound [6]: reduced ability to migrate into the wound
